From patent US20240002899A1 (priority 2022, published 2024)
Like-named read-outs stand apart in the source and are kept apart here.

Tested on: VSV (ATCC VR-1238)
Type: cell-based, vesicular stomatitis virus

Q: Which “MVEPI of VSV in plasma” value (intermediate-acting RUV: 311 nm, irradiation dose 6.49 J/mL) does the source give for `Cc1cc2nc3c(=O)[nH]c(=O)nc-3n(C[C@H](O)[C@H](O)[C@H](O)CO)c2cc1C` [riboflavin] here?
A: Its value is 4.04.

Q: And the “MVEPI of VSV in plasma” value (weak-acting (low-acting) RUV: 365 nm, irradiation dose 12.56 J/mL)?
A: Its value is 1.77.
